Assay results: US10675277B2, “Complexes of ivacaftor and its salts and derivatives, process for the preparation thereof and pharmaceutical compositions containing them” (NanGenex Nanotechnology Incorporated, priority 2016, dated 2020)
Blank lines part the entries; values can stand above or below the compound they belong to.

What was measured:
[1] = Apparent solubility by UV-VIS after 100 nm filtration; format: physicochemical; conditions: ultrapurified water, thermodynamic from solid, comparative formulation study, read-out: apparent solubility (comparative measurements, FIG. 15)
Method: (§1) The solid complex Ivacaftor formulations were dispersed in ultrapurified water in 1-10 mg/mL Ivacaftor equivalent concentration range. The resulting solutions were filtered by 100 nm disposable syringe filter. The Ivacaftor content in the filtrate was measured by UV-Vis spectrophotometry and the apparent solubility was calculated. The filtrate may contain Ivacaftor complex particles which could not be filtrated out using 100 nm pore size filter.
as §1, with “1” for “1-10”

[2] = cited from earlier work; for share of the total dose eliminated as metabolite: oral administration of Ivacaftor
CYP3A = conditions: in-vitro and clinical studies, humans; cited from earlier work
[3] = cited from earlier work
CFTR protein = CFTR protein (Homo sapiens, UniProt P13569); conditions: fraction of the potency of Ivacaftor; cited from earlier work
Sequence of CFTR protein (P13569 whole entry): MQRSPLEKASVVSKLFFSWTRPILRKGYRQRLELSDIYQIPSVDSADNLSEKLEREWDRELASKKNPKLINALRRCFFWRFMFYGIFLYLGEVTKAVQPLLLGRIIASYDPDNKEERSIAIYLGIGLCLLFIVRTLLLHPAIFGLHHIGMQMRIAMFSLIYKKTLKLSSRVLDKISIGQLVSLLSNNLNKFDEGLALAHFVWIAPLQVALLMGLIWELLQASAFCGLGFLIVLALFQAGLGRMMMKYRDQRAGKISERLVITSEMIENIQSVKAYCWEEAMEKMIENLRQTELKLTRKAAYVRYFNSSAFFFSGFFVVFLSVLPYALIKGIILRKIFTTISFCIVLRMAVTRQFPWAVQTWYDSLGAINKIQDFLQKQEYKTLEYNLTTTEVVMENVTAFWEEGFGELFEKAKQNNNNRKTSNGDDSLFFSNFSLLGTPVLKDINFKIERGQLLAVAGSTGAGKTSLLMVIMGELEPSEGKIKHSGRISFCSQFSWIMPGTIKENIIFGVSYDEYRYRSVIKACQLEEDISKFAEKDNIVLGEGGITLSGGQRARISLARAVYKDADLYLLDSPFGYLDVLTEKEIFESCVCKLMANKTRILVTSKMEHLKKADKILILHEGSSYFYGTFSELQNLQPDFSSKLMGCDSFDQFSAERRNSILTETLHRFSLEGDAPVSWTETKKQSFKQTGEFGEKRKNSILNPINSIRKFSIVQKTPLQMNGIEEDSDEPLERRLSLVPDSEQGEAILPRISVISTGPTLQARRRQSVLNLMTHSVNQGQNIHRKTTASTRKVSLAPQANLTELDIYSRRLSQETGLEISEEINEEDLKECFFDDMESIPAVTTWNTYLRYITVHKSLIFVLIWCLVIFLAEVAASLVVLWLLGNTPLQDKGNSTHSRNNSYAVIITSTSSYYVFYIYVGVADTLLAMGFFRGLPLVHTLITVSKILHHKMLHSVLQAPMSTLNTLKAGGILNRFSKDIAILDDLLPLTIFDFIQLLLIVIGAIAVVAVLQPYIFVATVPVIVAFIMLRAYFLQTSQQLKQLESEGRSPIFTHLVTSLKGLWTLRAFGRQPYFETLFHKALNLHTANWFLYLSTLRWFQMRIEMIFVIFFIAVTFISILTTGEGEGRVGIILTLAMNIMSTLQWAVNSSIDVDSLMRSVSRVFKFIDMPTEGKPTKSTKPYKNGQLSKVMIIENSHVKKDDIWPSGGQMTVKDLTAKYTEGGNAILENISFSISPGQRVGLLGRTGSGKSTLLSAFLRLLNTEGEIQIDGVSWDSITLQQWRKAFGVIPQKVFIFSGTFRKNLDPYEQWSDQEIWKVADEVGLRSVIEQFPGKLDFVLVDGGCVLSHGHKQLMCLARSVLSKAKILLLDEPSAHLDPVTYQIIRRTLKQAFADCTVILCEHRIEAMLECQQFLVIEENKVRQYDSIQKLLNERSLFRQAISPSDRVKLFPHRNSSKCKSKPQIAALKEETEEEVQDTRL

solubility [1]: < 100 µg/mL
Compound: CC(C)(C)c1cc(C(C)(C)C)c(NC(=O)c2c[nH]c3ccccc3c2=O)cc1O [crystalline Ivacaftor, N-(2,4-di-tert-butyl-5-hydroxyphenyl)-1,4-dihydro-4-oxoquinoline-3-carboxamide]

Compound: CC(C)(C)c1cc(C(C)(C)C)c(NC(=O)c2c[nH]c3ccccc3c2=O)cc1O [Ivacaftor, N-(2,4-di-tert-butyl-5-hydroxyphenyl)-1,4-dihydro-4-oxoquinoline-3-carboxamide]
mean apparent clearance (CL/F), healthy subjects versus patients with CF ([2]; human, in vivo): similar
eliminated in the feces after metabolic conversion ([2]; oral administration): 87.8%
urinary excretion as unchanged parent ([2]; oral administration): negligible
tmax (peak plasma concentrations) ([2]; single 150 mg oral dose, healthy volunteers, fed state): approximately 4 hours
mean apparent volume of distribution (Vz/F), healthy subjects versus patients with CF ([2]; single dose of 275 mg of KALYDECO, fed state): similar
apparent terminal half-life ([2]; single dose): approximately 12 hours
metabolism (CYP3A): primarily metabolized by CYP3A
solubility in water [3]: < 0.05 microgram/mL

Compound: CC(C)(C)c1cc(C(C)(C)CO)c(O)cc1NC(=O)c1c[nH]c2ccccc2c1=O [M1]
potency relative to Ivacaftor (CFTR protein): approximately one-sixth
share of the total dose eliminated as metabolite [2]: 22%

Compound: CC(C)(C)c1cc(C(C)(C)C(=O)O)c(O)cc1NC(=O)c1c[nH]c2ccccc2c1=O [M6]
potency relative to Ivacaftor (CFTR protein): less than one-fiftieth
share of the total dose eliminated as metabolite [2]: 43%
